Reference: patent US12559496B2, “Imidazopyrimidines as modulators of IL-17” (Janssen Pharmaceutica NV, priority 2020, dated 2026)

Legend:
[1] = tested on: IL-17A-induced G-CSF production in human normal keratinocytes (NHK); assay: NHK Assay: IL-17A-induced G-CSF production in human normal keratinocytes; format: cell-based; details: 24 h, IL-17A 5 ng/mL, 5% FBS, simple average if tested more than once
Method: IL-17A acts directly on keratinocytes through binding to dimeric receptor IL-17RA/RC and drives the production of a number of inflammatory mediators known to be elevated in psoriasis lesional tissue. IL-17A small molecule inhibitors that block the IL-17A to interact with IL-17R would inhibit the IL-17A signaling in its targeted cells such as keratinocytes. The compound functional activity is evaluated for its impact on IL-17A-induced G-CSF production in human normal keratinocytes (NHK).
Adult normal human keratinocytes are cultured in keratinocyte growth medium (Lonza) in a flask till reaching ˜ 90% confluence, then cells are transferred to a 384-well plate at density of 3000-4000 cell/well. Recombinant human IL-17A (Gibco PHC9174) is pre-incubated with titrated compound or DMSO for 1 h at rt then added to the cell culture plate. The final concentration of IL-17A is 5 ng/mL and DMSO is 0.2%, in the culture containing 5% FBS. Cells are cultured/treated for 24 h at 37° C. Supernatants are collected and G-CSF production is measured through HTRF technology using Human G-CSF Kit (CisBio). G-CSF concentration was extrapolated from the standard curve and IC50 is determined using GraphPad Prism. Cell viability is also evaluated using CellTiter-Glo kit (Promega) and effect of compound on cell viability is compared to DMSO control.

[2] = target: IL-17A(FLAG-Tagged): IL-17RA(His-Tagged) (Homo sapiens, UniProt Q16552, K93Q); assay: IL-17A(FLAG-Tagged): IL-17RA(His-Tagged) Binding Disruption Eu-HTRF Assay; details: disruption of IL-17A/IL-17RA binding; simple average if tested more than once
Excerpt: IL-17A(FLAG-Tagged): IL-17RA(His-Tagged) Binding Disruption Eu-HTRF Assay
An antibody directed against the FLAG tag of IL-17A (SEQ ID NO: 1) is labeled with the HTRF donor chromophore (Europium-cryptate). IL-17A is present as a dimer that is “locked into” this quaternary structure due to the formation of loop-spanning […] disulfide bridges. The construct of IL-17RA used in the assay excludes the […] portion of the receptor and is fused to a C-terminal 10×His tag (SEQ ID NO:2). An antibody directed against the His tag of the IL-17RA chimera is labeled with the HTRF acceptor chromophore (“D2”). The fluorescence-resonance energy transfer (FRET) depends on the vicinity of the donor chromophore to the acceptor, and interruption of the binding between the IL-17A and IL-17RA causes the reduction/loss of FRET. Therefore, this assay allows to evaluate the compound effect on the binding IL-17A and IL-17RA by monitoring the fluorescence intensity of donor vs acceptor. The assay is run as described below.
40 nL of 2-fold serial diluted compound solution for total 22 dilution points is added into each well of a 1536-well, white, low-volume, non-binding plate (Greiner #782904), then 2 μL of FLAG tagged IL-17A at 2× final concentration (2.5 nM) in solution of PBS+0.01% Triton-X100 is added to each well. The assay plate is briefly centrifuged then incubated for 1 h at rt. A mixed solution is prepared containing 2×5 nM 10HIS×IL-17RA, 2×2.5 nM Eu-anti-FLAG (CISBIO), 2×5 nM D2-anti-HIS (CISBIO) in PBS+0.01% Triton-X100+200 mM Potassium Fluoride (Sigma 60238) and 2 μL of mix is added to each well of the assay plate. The plate is briefly centrifuged then incubated for 2 h at rt. The HTRF intensities at the wavelength of donor (620 nm) and acceptor (665 nm) are measured using BMG Pherastar. The ratio between intensities at two wavelengths is calculated and plotted against the compound concentration and the data is fitted to a one-site competition model to yield IC50 of the compound.

UniProt Q16552, sequence (Q16552 with tags, fused parts or gaps K93Q): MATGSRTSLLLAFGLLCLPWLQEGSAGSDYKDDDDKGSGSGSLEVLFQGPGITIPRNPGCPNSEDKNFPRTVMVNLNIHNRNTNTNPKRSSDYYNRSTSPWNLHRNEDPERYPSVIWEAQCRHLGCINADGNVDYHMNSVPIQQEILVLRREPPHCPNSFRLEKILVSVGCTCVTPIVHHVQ

Compound	IC50 ([1]; Homo sapiens, Keratinocyte) [nM]	IC50 [2] [nM]	IC50 [1] [nM]
O=C(CC1CC(F)(F)C1)N[C@@H](c1ccn2cc([C@@H](NC(=O)[C@@H]3C[C@H]3C(F)(F)F)C3CCC(F)(F)CC3)nc2n1)C1CC1 (relative stereo) [Example 11, trans-(1S*,2S*)—N—((S)-(7-((R)-Cyclopropyl(2-(3,3-difluorocyclobutyl)acetamido)methyl)imidazo[1,2-a]pyrimidin-2-yl)(4,4-difluorocyclohexyl)methyl)-2-(trifluoromethyl)cyclopropane-1-carboxamide]	540	660	–
O=C(CC1CC(F)(F)C1)N[C@@H](c1ccn2cc([C@@H](NC(=O)[C@H]3C[C@@H]3C(F)(F)F)C3CCC(F)(F)CC3)nc2n1)C1CC1 (relative stereo) [Example 12, trans-(1R*,2R*)—N—((S)-(7-((R)-Cyclopropyl(2-(3,3-difluorocyclobutyl)acetamido)methyl)imidazo[1,2-a]pyrimidin-2-yl)(4,4-difluorocyclohexyl)methyl)-2-(trifluoromethyl)cyclopropane-1-carboxamide]	> 20000	6000	–
O=C(CCC(F)(F)F)NC(c1ccn2cc([C@@H](NC(=O)c3cnnn3CCC(F)(F)F)C3CCC(F)(F)CC3)nc2n1)C1CC1 (single isomer, unassigned) [Example 1, N—((S)-(7-((R*)-Cyclopropyl(4,4,4-trifluorobutanamido)methyl)imidazo[1,2-a]pyrimidin-2-yl)(4,4-difluorocyclohexyl)methyl)-1-(3,3,3-trifluoropropyl)-1H-1,2,3-triazole-5-carboxamide]	–	290	390
O=C(CCC(F)(F)F)NC(c1ccn2cc([C@@H](NC(=O)c3cnnn3CCC(F)(F)F)C3CCC(F)(F)CC3)nc2n1)C1CC1 (single isomer, unassigned) [Example 2, N—((S)-(7-((S*)-Cyclopropyl(4,4,4-trifluorobutanamido)methyl)imidazo[1,2-a]pyrimidin-2-yl)(4,4-difluorocyclohexyl)methyl)-1-(3,3,3-trifluoropropyl)-1H-1,2,3-triazole-5-carboxamide]	–	3700	6200
CC(CC(=O)N[C@H](c1ccn2cc([C@@H](NC(=O)c3ccnc(CC(F)(F)F)c3)C3CCC(F)(F)CC3)nc2n1)C1CC1)C(F)(F)F (single isomer, unassigned) [Example 3, N—((S)-(7-((S)-Cyclopropyl((R*)-4,4,4-trifluoro-3-methylbutanamido)methyl)imidazo[1,2-a]pyrimidin-2-yl)(4,4-difluorocyclohexyl)methyl)-2-(2,2,2-trifluoroethyl)isonicotinamide]	640	3100	–
CC(CC(=O)N[C@H](c1ccn2cc([C@@H](NC(=O)c3ccnc(CC(F)(F)F)c3)C3CCC(F)(F)CC3)nc2n1)C1CC1)C(F)(F)F (single isomer, unassigned) [Example 4, N—((S)-(7-((S)-Cyclopropyl((S*)-4,4,4-trifluoro-3-methylbutanamido)methyl)imidazo[1,2-a]pyrimidin-2-yl)(4,4-difluorocyclohexyl)methyl)-2-(2,2,2-trifluoroethyl)isonicotinamide]	–	1800	1200
CC(CC(=O)N[C@@H](c1ccn2cc([C@@H](NC(=O)[C@@H]3C[C@H]3C(F)(F)F)C3CCC(F)(F)CC3)nc2n1)C1CC1)C(F)(F)F (single isomer, unassigned) [Example 5]	960	700	–
CC(CC(=O)N[C@@H](c1ccn2cc([C@@H](NC(=O)[C@H]3C[C@@H]3C(F)(F)F)C3CCC(F)(F)CC3)nc2n1)C1CC1)C(F)(F)F (single isomer, unassigned) [Example 6]	2100	2700	–
